Laboratory results taken from ChEMBL document CHEMBL1201862, “PubChem BioAssay data set” (2004).
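Assay format: 96-well plates, 48-hour exposure. The concentration for 50% growth inhibition is given as GI50.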 Activity calls are given as the source filed them. No stated cut-off is given here; in the data, active = GI50 up to about 1.1 µM and inactive = higher.

Columns and labels:
Test in all cases: NCI tumour cell line growth inhibition, 48 h
[1] = test system: A498
[2] = test system: A549
[3] = test system: ACHN
[4] = test system: HCT-116
[5] = test system: HL-60
[6] = test system: Hs-578T
[7] = test system: M14
[8] = test system: MDA-N
[9] = test system: OVCAR-3
[10] = test system: RXF 393
[11] = test system: SF-268
[12] = test system: SF-539
[13] = test system: SK-MEL-2
[14] = test system: SK-OV-3
[15] = test system: SNB-75
[16] = test system: TK-10
[17] = test system: HOP-92
[18] = test system: SN12C
[19] = test system: K562
[20] = test system: SR

Measured: GI50

CSc1[nH]cnc1C(N)=S
inactive: [1] > 100 µM | [2] > 100 µM | [3] > 100 µM | [4] > 100 µM | [5] > 100 µM | [6] > 100 µM | [7] > 100 µM | [8] > 100 µM | [9] > 100 µM | [10] > 100 µM | [11] > 100 µM | [12] > 100 µM | [13] > 100 µM | [14] > 100 µM | [15] > 100 µM | [16] > 100 µM

COc1ccc(-c2oc3ccc(C)cc3c(=O)c2O)cc1
inactive: [1] > 100 µM | [2] > 100 µM | [3] 31.9 µM | [4] 52 µM | [5] 58.7 µM | [17] > 100 µM | [6] > 100 µM | [7] > 100 µM | [8] > 100 µM | [9] > 100 µM | [10] > 100 µM | [11] 45 µM | [12] 43.4 µM | [13] > 100 µM | [14] > 100 µM | [18] > 100 µM | [15] 76.7 µM | [16] 32.1 µM

C=C1OC2OC(C)C(NC(=O)OCC(Cl)(Cl)Cl)C(OC(C)=O)C2O1 (centres undefined)
inactive: [1] > 100 µM | [2] > 100 µM | [3] > 100 µM | [4] > 100 µM | [5] > 100 µM | [17] > 100 µM | [6] > 100 µM | [19] > 100 µM | [7] > 100 µM | [9] > 100 µM | [10] > 100 µM | [11] > 100 µM | [12] > 100 µM | [14] > 100 µM | [18] > 100 µM | [20] > 100 µM | [16] > 100 µM

COc1ccc(NC(S)=Nc2cccc(C)n2)cc1
inactive: [1] > 100 µM | [3] > 100 µM | [4] > 100 µM | [5] > 100 µM | [17] 39.5 µM | [6] 58.2 µM | [19] 75.3 µM | [7] > 100 µM | [10] 28.4 µM | [11] 55.1 µM | [12] 74.6 µM | [13] > 100 µM | [14] > 100 µM | [15] 69.5 µM | [20] > 100 µM | [16] > 100 µM

O=C1C=C(O)C(=O)c2c(O)ccc(O)c21
inactive: [1] > 100 µM | [2] > 100 µM | [3] > 100 µM | [4] > 100 µM | [5] 58.5 µM | [17] > 100 µM | [6] > 100 µM | [19] > 100 µM | [7] > 100 µM | [8] > 100 µM | [9] > 100 µM | [10] > 100 µM | [11] > 100 µM | [12] > 100 µM | [13] > 100 µM | [14] > 100 µM | [15] > 100 µM | [16] > 100 µM

O=C(O)c1cccc(S(=O)(=O)NN2C(=O)CSC2c2c(O)ccc3ccccc23)c1 (centres undefined)
inactive: [1] 24.5 µM | [2] 41.5 µM | [3] 34.1 µM | [4] 19.6 µM | [5] 28 µM | [19] 31.3 µM | [7] 42.2 µM | [8] 37.8 µM | [9] 20.6 µM | [10] 45 µM | [11] 32.5 µM | [12] 22.2 µM | [13] 33.5 µM | [14] 37.7 µM | [18] 36.9 µM | [15] 30.6 µM | [20] 24.9 µM | [16] > 100 µM

NC(=O)c1sc2nc3ccccc3n2c1N
inactive: [1] 63.1 µM | [2] > 100 µM | [3] 59.8 µM | [4] 74.1 µM | [5] > 100 µM | [17] 69.8 µM | [6] 46 µM | [7] > 100 µM | [8] > 100 µM | [9] > 100 µM | [10] 21.1 µM | [11] 47.2 µM | [12] 21.5 µM | [13] 30.2 µM | [14] 27.2 µM | [15] 29.4 µM | [16] 42.7 µM

Cc1cc2c(cc1Cl)S(=O)(=O)OC(c1ccc([N+](=O)[O-])cc1)=N2
inactive: [1] > 100 µM | [2] > 100 µM | [3] > 100 µM | [4] > 100 µM | [5] > 100 µM | [17] > 100 µM | [6] > 100 µM | [19] 91 µM | [7] > 100 µM | [9] > 100 µM | [10] > 100 µM | [11] > 100 µM | [12] > 100 µM | [14] > 100 µM | [18] > 100 µM | [15] 44.4 µM | [20] > 100 µM | [16] > 100 µM

Cc1ccc(S(=O)(=O)NC(=O)NCc2ccc(S(N)(=O)=O)cc2)cc1
inactive: [1] > 100 µM | [2] > 100 µM | [3] > 100 µM | [4] > 100 µM | [5] > 100 µM | [17] > 100 µM | [6] > 100 µM | [19] > 100 µM | [7] > 100 µM | [9] > 100 µM | [10] > 100 µM | [11] > 100 µM | [12] > 100 µM | [13] > 100 µM | [14] > 100 µM | [15] > 100 µM | [20] > 100 µM | [16] > 100 µM

Clc1cc2ccccc2c2ccccc12
inactive: [1] > 100 µM | [2] 44 µM | [3] 82.2 µM | [4] > 100 µM | [5] 35.2 µM | [17] 38.5 µM | [6] 65.6 µM | [19] 42.1 µM | [7] 31.5 µM | [9] 52.2 µM | [10] 32.8 µM | [11] 74 µM | [12] 64 µM | [13] 27.5 µM | [18] 86.3 µM | [15] > 100 µM | [20] 30.8 µM | [16] > 100 µM

CN(C)CCNc1ccc(NCCN(C)C)c2c1C(=O)c1ncsc1C2=O
inactive: [1] 14.1 µM | [2] 11.9 µM | [3] 8.2 µM | [4] 8.18 µM | [17] 15.2 µM | [6] 17.7 µM | [19] 13.6 µM | [7] 18.2 µM | [9] 4.65 µM | [10] 18.6 µM | [11] 15.4 µM | [12] 12.9 µM | [13] 20.2 µM | [14] 18.8 µM | [18] 10.9 µM | [15] 15.8 µM | [20] 1.21 µM | [16] 24.8 µM

COc1c(O)cc2c(c1O)C(=O)C1=C(CCCC1)C2=O
inactive: [1] 17.9 µM | [2] 26.1 µM | [3] 23 µM | [4] 12.5 µM | [5] 8.24 µM | [17] 21.7 µM | [6] 21.8 µM | [7] 34.8 µM | [9] 20.3 µM | [10] 14.9 µM | [11] 24.4 µM | [12] 15.6 µM | [13] 37.6 µM | [14] 19.8 µM | [18] 20.6 µM | [20] 10.8 µM | [16] 34.3 µM
